According to ChEMBL document CHEMBL4368888, “Design, synthesis and biological evaluation of tryptamine salicylic acid derivatives as potential antitumor agents” (Medchemcomm, 2019):

Key:
Format in all cases: functional, cell-based
HepG2 = assay: Antiproliferative activity against human HepG2 cells after 48 hrs by MTT assay; conditions: HepG2, 48 h
A549 = assay: Antiproliferative activity against human A549 cells after 48 hrs by MTT assay; conditions: A549, 48 h
MGC-803 = assay: Antiproliferative activity against human MGC803 cells after 48 hrs by MTT assay; conditions: MGC-803, 48 h
HeLa = assay: Antiproliferative activity against human HeLa cells after 48 hrs by MTT assay
MCF7 = assay: Antiproliferative activity against human MCF7 cells after 48 hrs by MTT assay; conditions: MCF7, 48 h

SMILES	IC50 (HepG2)	IC50 (A549)	IC50 (MGC-803)	IC50 (HeLa)	IC50 (MCF7)
COc1ccc2[nH]cc(CCNC(=O)c3cccc(C)c3O)c2c1	85 µM	> 100 µM	43 µM	42 µM	97 µM
O=C(NCCc1c[nH]c2ccccc12)c1cc(Cl)ccc1O	> 100 µM	> 100 µM	74 µM	> 100 µM	> 100 µM
Cc1ccc2[nH]cc(CCNC(=O)c3cccc(C)c3O)c2c1	64 µM	50 µM	38 µM	61 µM	62 µM
Cc1ccc(C(=O)NCCc2c[nH]c3ccc(C)cc23)c(O)c1	> 100 µM	75 µM	38 µM	> 100 µM	60 µM
O=C(NCCc1c[nH]c2ccc(F)cc12)c1cc(Cl)ccc1O	> 100 µM	53 µM	53 µM	> 100 µM	> 100 µM
O=C(NCCc1c[nH]c2ccc(Cl)cc12)c1ccccc1O	> 100 µM	60 µM	35 µM	81 µM	75 µM
O=C(NCCc1c[nH]c2ccccc12)c1ccccc1O	> 100 µM	> 100 µM	> 100 µM	> 100 µM	> 100 µM
O=C(NCCc1c[nH]c2ccc(F)cc12)c1cc(Br)ccc1O	> 100 µM	77 µM	80 µM	76 µM	> 100 µM
O=C(NCCc1c[nH]c2ccc(Br)cc12)c1cc(Br)ccc1O	> 100 µM	62 µM	80 µM	> 100 µM	> 100 µM
O=C(NCCc1c[nH]c2ccccc12)c1cc(Br)ccc1O	> 100 µM	> 100 µM	78 µM	> 100 µM	> 100 µM
Cc1ccc(C(=O)NCCc2c[nH]c3ccc(F)cc23)c(O)c1	> 100 µM	> 100 µM	60 µM	> 100 µM	> 100 µM
O=C(NCCc1c[nH]c2ccccc12)c1ccc(Cl)cc1O	> 100 µM	> 100 µM	80 µM	> 100 µM	> 100 µM
O=c1[nH]cc(F)c(=O)[nH]1 [FLUOROURACIL]	68 µM	> 100 µM	58 µM	50 µM	–
Cc1ccc2[nH]cc(CCNC(=O)c3ccc(Cl)cc3O)c2c1	98 µM	68 µM	47 µM	93 µM	> 100 µM
O=C(NCCc1c[nH]c2ccc(Cl)cc12)c1ccc(Cl)cc1O	90 µM	46 µM	34 µM	64 µM	69 µM
O=C(NCCc1c[nH]c2ccc(F)cc12)c1ccc(Cl)cc1O	> 100 µM	> 100 µM	62 µM	> 100 µM	> 100 µM
Cc1ccc(C(=O)NCCc2c[nH]c3ccc(Cl)cc23)c(O)c1	> 100 µM	63 µM	37 µM	64 µM	73 µM
Cc1cccc(C(=O)NCCc2c[nH]c3ccc(F)cc23)c1O	> 100 µM	67 µM	52 µM	> 100 µM	> 100 µM

SMILES	IC50 (HepG2)	IC50 (A549)	IC50 (MGC-803)	IC50 (HeLa)	IC50 (MCF7)
O=C(NCCc1c[nH]c2ccc(Cl)cc12)c1cc(Cl)ccc1O	89 µM	62 µM	31 µM	80 µM	80 µM
COc1ccc2[nH]cc(CCNC(=O)c3ccccc3O)c2c1	> 100 µM	> 100 µM	59 µM	82 µM	> 100 µM
COc1ccc2[nH]cc(CCNC(=O)c3ccc(Cl)cc3O)c2c1	> 100 µM	> 100 µM	56 µM	71 µM	> 100 µM
O=C(NCCc1c[nH]c2ccc(Br)cc12)c1cc(Cl)ccc1O	87 µM	63 µM	63 µM	80 µM	73 µM
O=C(NCCc1c[nH]c2ccc(Br)cc12)c1ccccc1O	> 100 µM	59 µM	37 µM	79 µM	80 µM
Cc1ccc(C(=O)NCCc2c[nH]c3ccc(Br)cc23)c(O)c1	80 µM	61 µM	48 µM	61 µM	80 µM
Cc1ccc2[nH]cc(CCNC(=O)c3cc(Cl)ccc3O)c2c1	> 100 µM	89 µM	42 µM	> 100 µM	79 µM
O=C(NCCc1c[nH]c2ccc(Br)cc12)c1ccc(Cl)cc1O	92 µM	63 µM	43 µM	71 µM	98 µM
COc1ccc2[nH]cc(CCNC(=O)c3ccc(C)cc3O)c2c1	80 µM	> 100 µM	59 µM	80 µM	> 100 µM
Cc1cccc(C(=O)NCCc2c[nH]c3ccc(Cl)cc23)c1O	62 µM	48 µM	56 µM	56 µM	70 µM
Cc1ccc2[nH]cc(CCNC(=O)c3cc(Br)ccc3O)c2c1	93 µM	80 µM	61 µM	> 100 µM	89 µM
Cc1ccc(C(=O)NCCc2c[nH]c3ccccc23)c(O)c1	> 100 µM	> 100 µM	80 µM	> 100 µM	> 100 µM
COc1ccc2[nH]cc(CCNC(=O)c3cc(Br)ccc3O)c2c1	> 100 µM	> 100 µM	62 µM	74 µM	> 100 µM
COc1ccc2[nH]cc(CCNC(=O)c3cc(Cl)ccc3O)c2c1	75 µM	> 100 µM	55 µM	> 100 µM	> 100 µM
O=C(NCCc1c[nH]c2ccc(Cl)cc12)c1cc(Br)ccc1O	> 100 µM	63 µM	35 µM	85 µM	75 µM
O=C(NCCc1c[nH]c2ccc(F)cc12)c1ccccc1O	> 100 µM	> 100 µM	63 µM	> 100 µM	> 100 µM
Cc1ccc2[nH]cc(CCNC(=O)c3ccccc3O)c2c1	> 100 µM	> 100 µM	45 µM	> 100 µM	93 µM
Cc1cccc(C(=O)NCCc2c[nH]c3ccccc23)c1O	> 100 µM	> 100 µM	63 µM	82 µM	> 100 µM
